Test results: ChEMBL document CHEMBL1201862, “PubChem BioAssay data set” (2004)
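A five-concentration, 48-hour dose response in 96-well plates underlies each endpoint, interpolated linearly between surrounding concentrations. GI50 marks 50% less growth.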 Active and inactive are the calls of the source. No stated cut-off is given here; in the data, active = GI50 up to about 1.1 µM and inactive = higher.

Experiments:
Assay in all cases: NCI-60 cell line screen, 48 h
ACHN = test system: ACHN
BT-549 = test system: BT-549
CAKI-1 = test system: CAKI-1
HCT-116 = test system: HCT-116
HT-29 = test system: HT-29
Hs-578T = test system: Hs-578T
IGROV-1 = test system: IGROV-1
K562 = test system: K562
MOLT-4 = test system: MOLT-4
Malme-3M = test system: Malme-3M
NCI-H226 = test system: NCI-H226
NCI-H522 = test system: NCI-H522
OVCAR-5 = test system: OVCAR-5
OVCAR-8 = test system: OVCAR-8
SF-295 = test system: SF-295
SK-MEL-2 = test system: SK-MEL-2
TK-10 = test system: TK-10
UACC-257 = test system: UACC-257
U-251 = test system: U-251

Row | SMILES | GI50 (ACHN) | GI50 (BT-549) | GI50 (CAKI-1) | GI50 (HCT-116) | GI50 (HT-29) | GI50 (Hs-578T) | GI50 (IGROV-1) | GI50 (K562) | GI50 (MOLT-4) | GI50 (Malme-3M) | GI50 (NCI-H226) | GI50 (NCI-H522) | GI50 (OVCAR-5) | GI50 (OVCAR-8) | GI50 (SF-295) | GI50 (SK-MEL-2) | GI50 (TK-10) | GI50 (UACC-257) | GI50 (U-251)
1 | Cc1ccccc1-n1c(=O)c2ncn(C3CCCO3)c2n(-c2ccccc2C)c1=S (stereo not drawn) | > 100 µM (inactive) | > 100 µM (inactive) | > 100 µM (inactive) | > 100 µM (inactive) | > 100 µM (inactive) | > 100 µM (inactive) | > 100 µM (inactive) | > 100 µM (inactive) | > 100 µM (inactive) | > 100 µM (inactive) | > 100 µM (inactive) | > 100 µM (inactive) | > 100 µM (inactive) | > 100 µM (inactive) | > 100 µM (inactive) | > 100 µM (inactive) | > 100 µM (inactive) | > 100 µM (inactive) | –
2 | O=C(Nc1ccccc1)c1cc(S(=O)(=O)N2CCNNC2=O)c(S)cc1Cl | > 100 µM (inactive) | 37.5 µM (inactive) | > 100 µM (inactive) | 40.1 µM (inactive) | – | > 100 µM (inactive) | > 100 µM (inactive) | 84.9 µM (inactive) | 71.6 µM (inactive) | 56.1 µM (inactive) | > 100 µM (inactive) | 24.7 µM (inactive) | > 100 µM (inactive) | 32.3 µM (inactive) | > 100 µM (inactive) | > 100 µM (inactive) | > 100 µM (inactive) | > 100 µM (inactive) | > 100 µM (inactive)
3 | O=C(O)C1(Nc2ccc(Cl)cc2)CCCC1 | > 100 µM (inactive) | > 100 µM (inactive) | > 100 µM (inactive) | 76.4 µM (inactive) | > 100 µM (inactive) | > 100 µM (inactive) | > 100 µM (inactive) | > 100 µM (inactive) | – | > 100 µM (inactive) | > 100 µM (inactive) | > 100 µM (inactive) | > 100 µM (inactive) | > 100 µM (inactive) | 97.9 µM (inactive) | > 100 µM (inactive) | > 100 µM (inactive) | – | > 100 µM (inactive)
4 | NC(Cn1ccc(=O)c(O)c1)C(=O)O (stereo not drawn) [MIMOSINE] | > 100 µM (inactive) | > 100 µM (inactive) | > 100 µM (inactive) | > 100 µM (inactive) | > 100 µM (inactive) | > 100 µM (inactive) | > 100 µM (inactive) | – | 72.6 µM (inactive) | 54.8 µM (inactive) | > 100 µM (inactive) | > 100 µM (inactive) | > 100 µM (inactive) | > 100 µM (inactive) | > 100 µM (inactive) | > 100 µM (inactive) | > 100 µM (inactive) | > 100 µM (inactive) | > 100 µM (inactive)
5 | COc1cccc(C(=O)C(O)c2cccc(OC)c2OC)c1OC (stereo not drawn) | > 100 µM (inactive) | > 100 µM (inactive) | > 100 µM (inactive) | > 100 µM (inactive) | > 100 µM (inactive) | > 100 µM (inactive) | > 100 µM (inactive) | – | > 100 µM (inactive) | > 100 µM (inactive) | > 100 µM (inactive) | > 100 µM (inactive) | > 100 µM (inactive) | > 100 µM (inactive) | > 100 µM (inactive) | > 100 µM (inactive) | > 100 µM (inactive) | > 100 µM (inactive) | > 100 µM (inactive)
6 | COc1cccc2c1OC(c1cccc3ccccc13)C([N+](=O)[O-])=C2 (stereo not drawn) | 1.6 µM (inactive) | 1.17 µM (inactive) | 2.33 µM (inactive) | 1.21 µM (inactive) | 1.92 µM (inactive) | 2.48 µM (inactive) | 2.49 µM (inactive) | 0.685 µM (active) | 0.552 µM (active) | 1.75 µM (inactive) | 2 µM (inactive) | 1.33 µM (inactive) | 1.82 µM (inactive) | 4.24 µM (inactive) | 1.88 µM (inactive) | – | 2.32 µM (inactive) | 1.54 µM (inactive) | 1.56 µM (inactive)
7 | Cc1ccc2nc3sc(=O)sc3nc2c1 [CHINOMETHIONAT] | 15.2 µM (inactive) | 15.3 µM (inactive) | 16.4 µM (inactive) | 17.2 µM (inactive) | 17.1 µM (inactive) | 25 µM (inactive) | 16.1 µM (inactive) | 26.2 µM (inactive) | 15.2 µM (inactive) | – | 14.3 µM (inactive) | 17.5 µM (inactive) | 16.7 µM (inactive) | 15.3 µM (inactive) | 16.6 µM (inactive) | 14.4 µM (inactive) | 16.4 µM (inactive) | 16.9 µM (inactive) | 17.1 µM (inactive)
8 | CC1=CCC[C@@](C)(O)[C@@H]2C[C@H]3C(CSc4ccccc4)C(=O)O[C@H]3[C@@H](O2)[C@H](C)CCC1 (stereo partly drawn) | 12.9 µM (inactive) | 22.7 µM (inactive) | 25.1 µM (inactive) | 21.4 µM (inactive) | – | 18.4 µM (inactive) | 14.5 µM (inactive) | 9.08 µM (inactive) | 7.13 µM (inactive) | 13.7 µM (inactive) | – | 10.7 µM (inactive) | 15.9 µM (inactive) | 13.7 µM (inactive) | 12 µM (inactive) | 17.2 µM (inactive) | 17.3 µM (inactive) | 18.6 µM (inactive) | 21.2 µM (inactive)
9 | CCOC(=O)c1cc(-c2ccc(OC)cc2)c([N+](=O)[O-])n1C | > 10 µM (inactive) | > 10 µM (inactive) | – | > 10 µM (inactive) | > 10 µM (inactive) | > 10 µM (inactive) | > 10 µM (inactive) | 6.84 µM (inactive) | > 10 µM (inactive) | > 10 µM (inactive) | > 10 µM (inactive) | > 10 µM (inactive) | > 10 µM (inactive) | > 10 µM (inactive) | > 10 µM (inactive) | > 10 µM (inactive) | – | > 10 µM (inactive) | > 10 µM (inactive)
10 | O=C(c1ccccc1)c1ccc(-n2c3ccccc3c3ccc4c(c32)C(=O)C=CC4=O)cc1 | 4.38 µM (inactive) | 20.3 µM (inactive) | 2.07 µM (inactive) | 5.2 µM (inactive) | 2.82 µM (inactive) | 23.4 µM (inactive) | 16 µM (inactive) | 3.4 µM (inactive) | 1.75 µM (inactive) | – | 23.3 µM (inactive) | 3.43 µM (inactive) | 18.7 µM (inactive) | 7.24 µM (inactive) | 15.7 µM (inactive) | 19.3 µM (inactive) | 12.7 µM (inactive) | 12.7 µM (inactive) | 14.7 µM (inactive)
11 | O=C(O)c1nc2cc(C(F)(F)F)ccc2nc1Nc1ccc(Cl)c(Cl)c1 | 11.6 µM (inactive) | 11.1 µM (inactive) | 28.4 µM (inactive) | 9.23 µM (inactive) | 15.3 µM (inactive) | 14 µM (inactive) | 18 µM (inactive) | 14.6 µM (inactive) | – | 20.1 µM (inactive) | 15.8 µM (inactive) | 15.8 µM (inactive) | 17.7 µM (inactive) | 12.6 µM (inactive) | 10.3 µM (inactive) | 2.96 µM (inactive) | 14.2 µM (inactive) | 20.7 µM (inactive) | 10.3 µM (inactive)
12 | O=C(Nc1ccccc1)N1N=C(c2ccccc2)C1c1ccccc1 (stereo not drawn) | 22 µM (inactive) | 23.2 µM (inactive) | 30.2 µM (inactive) | 17.9 µM (inactive) | 20.5 µM (inactive) | 24.2 µM (inactive) | 40.4 µM (inactive) | – | – | 30.5 µM (inactive) | 18.8 µM (inactive) | 19.9 µM (inactive) | 23.2 µM (inactive) | 33.8 µM (inactive) | 24.3 µM (inactive) | – | 36.1 µM (inactive) | 31.8 µM (inactive) | 36.2 µM (inactive)
13 | O=C1C2Cc3c(n(C(=O)c4ccccc4)c4ccccc34)CC2C(=O)N1c1ccc(Nc2ccc(N3C(=O)C4Cc5c(n(C(=O)c6ccccc6)c6ccccc56)CC4C3=O)cc2)cc1 (stereo not drawn) | > 100 µM (inactive) | > 100 µM (inactive) | > 100 µM (inactive) | > 100 µM (inactive) | > 100 µM (inactive) | > 100 µM (inactive) | > 100 µM (inactive) | > 100 µM (inactive) | > 100 µM (inactive) | > 100 µM (inactive) | > 100 µM (inactive) | > 100 µM (inactive) | > 100 µM (inactive) | > 100 µM (inactive) | > 100 µM (inactive) | – | > 100 µM (inactive) | > 100 µM (inactive) | > 100 µM (inactive)
14 | C/C=C\C(CC(=O)NCCc1cn(C(=O)OCc2ccccc2)c2ccccc12)CC(=O)OC (stereo not drawn) | > 100 µM (inactive) | 60 µM (inactive) | > 100 µM (inactive) | 91.4 µM (inactive) | 48.5 µM (inactive) | > 100 µM (inactive) | 76.7 µM (inactive) | 71.1 µM (inactive) | 48 µM (inactive) | > 100 µM (inactive) | – | 48.8 µM (inactive) | > 100 µM (inactive) | > 100 µM (inactive) | 57 µM (inactive) | > 100 µM (inactive) | > 100 µM (inactive) | 52.8 µM (inactive) | > 100 µM (inactive)
15 | N#Cc1nc(-c2ccc(-c3nc(C#N)c(N)o3)cc2)oc1N | > 10 µM (inactive) | > 10 µM (inactive) | > 10 µM (inactive) | > 10 µM (inactive) | > 10 µM (inactive) | > 10 µM (inactive) | > 10 µM (inactive) | > 10 µM (inactive) | > 10 µM (inactive) | > 10 µM (inactive) | > 10 µM (inactive) | > 10 µM (inactive) | – | > 10 µM (inactive) | > 10 µM (inactive) | – | > 10 µM (inactive) | > 10 µM (inactive) | –
